Test system: depression
Assay: Beck Depression Inventory II score, case study of a depressed patient
Format: in vivo, human
Conditions: person; after three months of fluoxetine monotherapy (20 mg daily raised to 60 mg daily); score at first visit 28
Text: “Depression symptoms rating scale” refers to any one of a number of standardized questionnaires, clinical instruments, or symptom inventories utilized to measure symptoms and symptom severity in depression. Such rating scales are often used in clinical studies to define treatment outcomes, based on changes from the study's entry point(s) to endpoint(s). Such depression symptoms rating scales include, but are not limited to, The Quick Inventory of Depressive-Symptomatology Self-Report (QIDS-SR16), the 17-Item Hamilton Rating Scale of Depression (HRSD17), the 30-Item Inventory of Depressive Symptomatology (IDS-C30), or The Montgomery-Asperg Depression Rating Scale (MADRS) and […] Depression Inventory II. Such ratings scales may involve patient self-report or be clinician rated. A 50% or greater reduction in a depression ratings scale score over the course of a clinical trial (starting point to endpoint) is typically considered a favorable response for most depression symptoms rating scales. “Remission” in clinical studies of depression often refers to achieving at, or below, a particular numerical rating score on a depression symptoms rating scale, i.e., less than or equal to 7 on the HRSD17; or less than or equal to 5 on the QIDS-SR16; or less than or equal to 10 on the MADRS or less than or equal to 9 on the Beck Depression Inventory II. […]

## CNCCC(Oc1ccc(C(F)(F)F)cc1)c1ccccc1 (stereo not shown) [fluoxetine]
  Beck Depression Inventory II score: 26

From US12318359B2, “Combination methods and compositions including sleep therapeutics for treating mood” (priority 2012, dated 2025)
